Source: patent US20250122239A1 (K BENHAVNS UNIVERSITET, published 2025)
Ends that are not written are not given here.

What was measured:
[1] = tested on: lean mice; assay: food intake in chow fed lean mice, shortened GLP-1-NT combination peptides (Example 9); format: in vivo; conditions: 100 nmol/kg, single SC injection, chow fed lean mice fasted overnight
Method: Chow fed lean mice fasted overnight were injected once SC in the beginning of the light cycle and food returned. Food intake measured continuously after injection in an indirect calorimetry system. Food intake was analysed using repeated measures two-way ANOVA followed by a Tukey's post hoc test.

[2] = molecular target: human neurotensin receptor NTSR1 (pCMVhNTSR 1, transiently expressed in HEK293 cells) (human, UniProt P30989 1-418); assay: cell-based or functional assay
human neurotensin receptor NTSR1 (pCMVhNTSR 1, transiently expressed in HEK293 cells), sequence (P30989 whole entry): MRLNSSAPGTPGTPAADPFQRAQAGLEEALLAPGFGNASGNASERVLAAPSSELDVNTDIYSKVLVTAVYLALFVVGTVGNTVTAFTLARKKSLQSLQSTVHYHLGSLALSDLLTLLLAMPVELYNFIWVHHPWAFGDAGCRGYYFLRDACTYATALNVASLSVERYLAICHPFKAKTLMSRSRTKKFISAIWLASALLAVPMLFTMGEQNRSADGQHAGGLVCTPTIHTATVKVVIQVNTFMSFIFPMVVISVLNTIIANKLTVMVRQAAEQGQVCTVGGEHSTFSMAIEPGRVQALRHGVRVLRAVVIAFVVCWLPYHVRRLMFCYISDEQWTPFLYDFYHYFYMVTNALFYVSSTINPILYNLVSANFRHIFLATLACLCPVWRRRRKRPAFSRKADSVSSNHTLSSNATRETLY

inositol phosphate (IP) accumulation, LogEC50 [2] | Molecule | food intake in comparison to saline [1]
 | HAEGTFTSDVSSYLEGQELYENKPRRPYIL-acid (HAEGTFTSDVSSYLEGQELYENKPRRPYIL-OH) [Peptide 9] | p<0.05 peptide 9 vs. saline
 | HAEFTFTSDVSSYLEGQKKGGELYENKPRRPYIL-acid (HAEFTFTSDVSSYLEGQKKGGELYENKPRRPYIL-OH) [Peptide 10] | p<0.001 peptide 10 vs. saline
-8.5 | HAEGTFTSDVSSYLEGQAAKEFIAWLVKGRLYENKPRRPYIL [GLP-1/NT fusion peptide (SEQ ID NO: 45)] | 
